{"source": "patent US20230277525A1", "about": "“CONJUGATE OF FUNCTIONAL DRUG AND TOLL-LIKE RECEPTOR 7 OR 8 AGONIST OF WHICH ACTIVE SITE IS TEMPORARILY INACTIVATED AND USE THEREOF” (priority 2020, published 2023)", "molecules": {"B1": {"name": "complex of the OVA protein antigen and resiquimod, having a bond cleaved by cathepsin-B: OVA protein antigen linked to resiquimod active site via Mal-Val-Cit-PAB linker cleaved by cathepsin-B (conjugate, UniProt P01012 2-386, looked up)", "Ovalbumin": "GSIGAASMEFCFDVFKELKVHHANENIFYCPIAIMSALAMVYLGAKDSTRTQINKVVRFDKLPGFGDSIEAQCGTSVNVHSSLRDILNQITKPNDVYSFSLASRLYAEERYPILPEYLQCVKELYRGGLEPINFQTAADQARELINSWVESQTNGIIRNVLQPSSVDSQTAMVLVNAIVFKGLWEKAFKDEDTQAMPFRVTEQESKPVQMMYQIGLFRVASMASEKMKILELPFASGTMSMLVLLPDEVSGLEQLESIINFEKLTEWTSSNVMEERKIKVYLPRMKMEEKYNLTSVLMAMGITDVFSSSANLSGISSAESLKISQAVHAAHAEINEAGREVVGSAEAGVDAASVSEEFRADHPFLFCIKHIATNAVLFFGRCVSP", "modifications": "resiquimod via Mal-Val-Cit-PAB linker"}}, "key": {"[1]": {"test_system": "IL-6", "assay": "blood inflammatory cytokine (IL-6) level after intravenous injection, AAC-002 study", "type": "in vivo", "conditions": "mouse, two hours after intravenous injection, ELISA; FIG. 20", "procedure": "To confirm the effect of the antibody-resiquimod complex (AAC-002) synthesized in the same manner as in Example 15.1 on the secretion of an inflammatory cytokine in blood, two hours after the AAC-002 complex (conjugated TLR7/8a-Blocked active site) was intravenously injected into a mouse, blood samples were collected. The collected blood sample was centrifuged at 10,000×g for 20 minutes to separate serum, and the concentration of IL-6, which is a representative inflammatory cytokine, present in serum was measured using the Invitrogen mouse IL-6 ELISA kit. As controls, a phosphate-buffered saline-injected group (Blank), a resiquimod only-injected group (Bare TLR7/8a-Uncomplexd), and a group into which an antibody-resiquimod complex in which the antibody binds to a site other than the active site, is injected (conjugated TLR7/8a-Live active site) were used for comparison."}, "[2]": {"test_system": "IL-6", "assay": "blood inflammatory cytokine (IL-6) level after intravenous injection, AAC-001 study", "type": "in vivo", "conditions": "mouse, blood collected at 0, 1, 2 and 4 hours, ELISA, FIG. 18", "procedure": "To confirm the effect of the antibody-resiquimod complex (AAC-001) synthesized in the same manner as in Example 14.1 on the secretion of inflammatory cytokine in blood, after intravenously injecting the AAC-001 complex or resiquimod into a mouse, blood samples were collected at 0, 1, 2, and 4 hours. The collected blood sample was centrifuged at 10,000×g for 20 minutes to separate serum, and the concentration of IL-6, which is a representative inflammatory cytokine, present in serum was measured using the Invitrogen mouse IL-6 ELISA kit."}, "[3]": {"assay": "size of complex in aqueous solution by spectroscopy", "type": "physicochemical", "conditions": "in an aqueous solution; FIG. 21", "procedure": "To synthesize a complex of a protein antigen, which is a type of sulfhydryl group-containing protein-based drug, and resiquimod, having a bond cleaved by cathepsin-B, first, resiquimod to which a linker binds to its active site was synthesized. In further detail, resiquimod (10 mg) and Mal-Val-Cit-PAB-PNP (47.2 mg) were added to 2 mL of N,N-dimethylformamide (DMF), and then dissolved. Afterward, N,N-diisopropylethylamine (DIPEA; 6.7 μL) and 1-hydroxybenzotriazole hydrate (1-HOBt; 315 μg) were added. Then, a mixture was prepared by stirring at room temperature for 16 hours. The OVA protein antigen (10 mg) was added to the prepared mixture and reacted, thereby preparing a complex, and then the resulting complex was purified by thin-layer chromatography, thereby preparing an OVA protein antigen-resiquimod complex having a bond cleaved by cathepsin-B. Then, the prepared complex was subjected to spectroscopy to confirm its size."}}}
{"molecule": "CCOCc1nc2c(N)nc3ccccc3c2n1CC(C)(C)O", "note": "[resiquimod]", "values": [{"measurement": "inflammatory cytokine (IL-6) level in serum", "setting": "[1]", "value": "remarkably increasing an inflammatory cytokine level in blood"}, {"measurement": "inflammatory cytokine (IL-6) level in serum", "setting": "[2]", "value": "promotes the secretion of inflammatory cytokines and induces a cytokine storm"}]}
{"molecule": "B1", "values": [{"measurement": "nanoparticle size", "setting": "[3]", "value": "approximately 99.7 nm"}]}
